Read-outs that look alike come from different tables or passages of the source.
Tests used:
[1] = rat, in vivo, po; cited from earlier work
in vivo = conditions: male, SD, rat, po
[2] = rat, in vivo, po, cited from earlier work
protein kinase C (PKCα) = target: protein kinase C (PKCα); design: method as in earlier work; conditions: read-out: IC50, inhibition of protein kinase C (PKCα); cited from earlier work
[3] = design: method as in Gao et al. (2008) [16]; conditions: in situ loop method in rats; ref Gao et al. (2008) [16]; cited from earlier work
[4] = test system: influenza virus strain, A/PR8/34(H1N1); assay: Antiviral effect of serum after oral administration on influenza virus in MDCK cells (MTT); type: cell-based; conditions: COS 25 mg/kg, ribavirin 20 mg/kg, MTT after 48 h
[5] = rat, in vivo, po
Caco-2 cell monolayers = type: in vitro ADME, human
Procedure: Caco-2 cells were cultured in high glucose DMEM with 10% fetal bovine serum, 1% nonessential amino acids. Cells were cultured in a humidified atmosphere of 5% CO2 at 37°C. After reaching 80% confluens, Caco-2 cells were harvested with 0.05% trypsin-EDTA solution and seeded on top of CC inserts in 6-well plates, which has a surface area of 4.2 cm^2, at a density of 1.0×10^5 cells/cm^2. The protocols for cell culture in Transwell inserts were similar to those described previously.
Hank’s balanced salt solution (HBSS) was used as the transport buffer for the transport study in Caco-2 cell monolayer model. It was prepared by dissolving 9.5 grams of commercial available HBSS powder in 1000 mL water. The pH value of the buffer was adjusted to pH 6.0 by 85% of phosphoric acid.
Cell culture experiments were described previously. Briefly, after culture medium was aspirated, the cell monolayers were washed three times with blank HBSS. The transepithelial electrical resistance (TEER) values of cell monolayers were measured, which were more than […]. The monolayers were incubated with the blank HBSS for 1 h with 37°C. Thereafter the incubation medium was aspirated. […] The amounts of transported compound were measured as a function of time by UPLC-MS method described previously. […] At the end of the transport experiment, integrity of the monolayer was monitored by TEER value.

GI membrane = GI membrane toxicity by morphological observation; type: in vivo, rat; conditions: rats, oral, COS 25 mg/kg
Procedure: After in vivo pharmacokinetics experiments were carried out for 8 h, the GI was wash with HBSS (pH 7.4) and the segments were removed and immersed in the 4% neutral paraform aldehyde buffer and fixed. Vertical sections were prepared, stained with hematoxylin-eosin, and examined by light microscopy. To be able to describe possible changes in the structure of the tissue, tissues were studied and evaluated for morphological changes using the following parameters: Measurement of the distance between the nucleus and the apical membrane in enterocytes with a measuring-rod. Five measurements in each villus and five villi were measured in each slide. The villi were randomly chosen and measurements were all conducted at the tips of the villi. Villus index was used for duodenum, jejunum and ileum and crypt index for colon. Measurement of height (villi) or depth (crypt) and width (one-half of height or depth) was done with a measuring-rod of five villi/crypts in each slide that were randomly chosen. Height/depth was divided with width to receive the index.

O=C(/C=C/c1ccc(O)c(O)c1)O[C@@H]1C[C@](O)(C(=O)O)C[C@@H](O)[C@H]1O [CHA, Chlorogenic acid]
T 1/2λz [1]: 3.63 h | T max [1]: 0.75 h | absolute bioavailability orally [1]: about 0.69% | AUC(0-t) (in vivo): 0.144 µg·h/mL | T 1/2z ([2]; 60 mg/kg): 1.05 h

C[C@@H]1O[C@@H](OC[C@H]2O[C@@H](OCCc3ccc(O)c(O)c3)[C@H](O)[C@@H](O)[C@@H]2OC(=O)/C=C/c2ccc(O)c(O)c2)[C@H](O)[C@H](O)[C@H]1O [FTA, forsythoside A]
T 1/2λz [1]: 6.72 h | T max [1]: 0.75 h | absolute bioavailability orally [1]: ~0.72% | AUC(0-t) (in vivo): 0.0285 µg·h/mL | IC50 (protein kinase C (PKCα)): 1.9 µM | T 1/2λz ([2]; 100 mg/kg): 1.24 h

N[C@H]1[C@H](O[C@H]2[C@H](O)[C@@H](N)[C@H](O[C@H]3[C@H](O)[C@@H](N)[C@H](O[C@H]4[C@H](O)[C@@H](N)[C@H](O[C@H]5[C@H](O)[C@@H](N)[C@H](O[C@H]6[C@H](O)[C@@H](N)C(O)O[C@@H]6CO)O[C@@H]5CO)O[C@@H]4CO)O[C@@H]3CO)O[C@@H]2CO)O[C@H](CO)[C@@H](O)[C@@H]1O (some centres unmarked) [chitosan hexamer]
increase of the bioavailability of insulin and FDs [3]: about 2.5 times

NC(=O)c1ncn([C@@H]2O[C@H](CO)[C@@H](O)[C@H]2O)n1 [ribavirin]
inhibition rate on influenza virus compared with PBS group [4]: remarkable increase

Chito-oligosaccharide [COS]
CHA AUC0-480 min ([5]; 12.5 mg/kg): 52938.0±3520.0 ng⋅min/mL | FTA AUC0-480 min ([5]; 12.5 mg/kg): 2874.7±564.9 ng⋅min/mL | CHA AUC0-480 min ([5]; 25 mg/kg): 296980.0±36456.0 ng⋅min/mL | FTA AUC0-480 min ([5]; 25 mg/kg): 6286.0±1329.7 ng⋅min/mL | CHA AUC0-480 min ([5]; 50 mg/kg): 152641.5±72581.0 ng⋅min/mL | FTA AUC0-480 min ([5]; 50 mg/kg): 3143.0±572.1 ng⋅min/mL | effect on the P app-value for FTA and CHA compared to the control group (Caco-2 cell monolayers): significant, concentration-dependent increase

Triton X-100
Nucleo-apical distance (GI membrane; duodenum, jejunum and ileum, Triton X-100 200 mg/kg, vs PBS group): remarkable decrease | villi/crypt index (GI membrane; duodenum, jejunum, ileum and colon, Triton X-100 200 mg/kg, vs PBS group): remarkable decrease | morphology of the GI membrane (HE sections: stomach, jejunum, colon) (GI membrane; Triton X-100 200 mg/kg as positive control): could cause mucosal damage seriously

Reference: paper PMC3652823 (PLoS ONE, 2013)
